US11504386B2, “Preparation method for various novel fucosyl oligosaccharides and use thereof” (Korea University Research and Business Foundation, priority 2017, dated 2022)

How the values were obtained:
[1] = test system: Bifidobacterium bifidum DSM 20082; test: Prebiotic effect: cell growth and metabolism of FGal by Bifidobacterium bifidum; assay type: cell-based; conditions: medium with 3 g/L purified FGal, 37° C., FIG. 8
Excerpt: (§1) To verify the prebiotic effect of FGal, the cell growth of strains such as Bifidobacterium longum subsp. infantis ATCC 15697 and Bifidobacterium bifidum DSM 20082 was monitored. In addition, to conduct a test for the capabilities of pathogenic microorganisms to ferment FGal, the cell growth of strains such as E. coli O1:K1:H7 and Salmonella enterica serovar typhimurium was monitored. At this time, the medium contained 10 g/L of BactoPeptone, 5 g/L of yeast extract, 2 g/L of K2HPO4 (anhydrous), 5 g/L of Na acetate (anhydrous), 2 g/L of NH4 citrate tribasic, 0.2 g/L of Mg sulfate heptahydrate, 0.05 g/L of Mn sulfate, 1 mL/L of Tween 80 (polysorbate 80), 0.5 g/L of cysteine, and 3 g/L of purified FGal, and the strains were cultured at 37° C.

[2] = test system: Bifidobacterium longum subsp. infantis ATCC 15697; test: Prebiotic effect: cell growth and metabolism of FGal by Bifidobacterium longum subsp. infantis; assay type: cell-based; conditions: medium with 3 g/L purified FGal, 37° C., FIG. 8
Excerpt: as §1

E. coli O1:K1:H7 = test: Capability of pathogenic microorganism to ferment FGal (E. coli); assay type: cell-based; conditions: medium with 3 g/L purified FGal, 37° C., FIG. 9
Excerpt: as §1

[3] = test system: Salmonella enterica serovar typhimurium; test: Capability of pathogenic microorganism to ferment FGal (Salmonella); assay type: cell-based; conditions: medium with 3 g/L purified FGal, 37° C., FIG. 9
Excerpt: as §1

hippocampal neurons = hippocampal neurons (brain neural cells) treated with FGal; stated as known; cited from earlier work

Compound: C[C@@H]1O[C@@H](O[C@H]2C(O)O[C@H](CO)[C@H](O)[C@@H]2O)[C@@H](O)[C@H](O)[C@@H]1O (stereo partly shown) [FGal, 2′-fucosylgalactose]
- metabolism (fermentation) of FGal by the strain [1]: first decomposed FGal into fucose and galactose extracellularly, and then metabolized a small amount of galactose
- metabolism (fermentation) of FGal by the strain ([1]; listed as 2-fucosylgalactose): extracellularly decomposes 2-fucosylgalactose into galactose and fucose, and then uses only galactose
- metabolism (fermentation) of FGal by the strain [2]: decomposed FGal into galactose and fucose through intracellular fucosidase and used both
- metabolism (fermentation) of FGal by the strain ([2]; listed as 2-fucosylgalactose): decomposes 2-fucosylgalactose into galactose and fucose through intracellular fucosidase and uses both
- metabolism of FGal by pathogenic microorganism (E. coli O1:K1:H7): unable to metabolize
- metabolism of FGal by pathogenic microorganism [3]: unable to metabolize
- growth of nerve cells (hippocampal neurons): promotes the growth of nerve cells
